According to US5610161A, “Therapeutic agents” (The Boots Company PLC, priority 1992, dated 1997):
Structures can show the parent of a compound that is named as a salt.

What follows are molecules tested on reserpine-induced fall in body temperature (assay: Test 1: reversal of reserpine-induced hypothermia in mice, oral). Conditions: Mus musculus, po, 3 h, read-out: Test 1 ED50 (dose causing 50% reversal of the reserpine-induced fall in body temperature).
Format: in vivo, mice (Charles River CD1 strain, male)
Description: Male mice of the Charles River CD1 strain weighing between 18 and 30 g were separated into groups of five and were supplied with food and water ad libitum. After five hours the body temperature of each mouse was taken orally and the mice were injected intraperitoneally with reserpine (10 mg/kg) in solution in deionised water containing ascorbic acid (50 mg/ml). The amount of liquid injected was 10 ml/kg of body weight. Nine hours after the start of the test food was withdrawn but water was still available ad libitum. Twenty-four hours after the start of the test the temperatures of the mice were taken and the mice were given the test compound orally at a dose volume of 10 ml/kg of body weight. The compound was administered in aqueous solution. Three hours later the temperatures of all the mice were again taken. The percentage reversal of the reserpine-induced fall in body temperature was then calculated by the formula: [formula] The percentage reversal value for each group of five mice was determined at more than one dose rate to enable a value of the dose which causes a 50% reversal (ED50) to be obtained.
For Clc1ccc(C2=CCCNC23CCCC3)cc1.O=S(=O)(O)O [Example 17, 10-(4-chlorophenyl)-6-azaspiro[4.5]dec-9-ene sulphate], the ED50 was roughly 23 mg/kg. Fc1ccc(C2=CCCNC23CCCCC3)cc1.O=S(=O)(O)O [Example 10, 5-(4-fluorophenyl)-1-azaspiro[5.5]undec-4-ene sulphate] was tested, and the ED50 was roughly 18 mg/kg. Cl.Clc1cccc(C2=CCCNC23CCCCC3)c1 [Example 8, 5-(3-chlorophenyl)-1-azaspiro[5.5]undec-4-ene hydrochloride] was tested, and the ED50 was 16.4 mg/kg. Clc1ccc(C2=CCCNC23CCCCC3)cc1.O=S(=O)(O)O [Example 5, 5-(4-chlorophenyl)-1-azaspiro[5.5]undec-4-ene sulphate] showed an ED50 of roughly 20 mg/kg.

Same assay, conditions: Mus musculus; mice, oral, reserpine 10 mg/kg i.p., temperature 3 h after compound; read-out: Test 1 ED50 (dose causing 50% reversal of the reserpine-induced fall in body temperature)
For Cl.FC(F)(F)c1cccc(C2=CCCNC23CCCCC3)c1 [Example 11, 5-[3-(trifluoromethyl)phenyl]-1-azaspiro[5.5]undec-4-ene hydrochloride], the ED50 was roughly 22 mg/kg. Work on COCCN1CCC=C(c2ccc(Cl)cc2)C12CCCCC2 [Example 22, 5-(4-chlorophenyl)-1-(2-methoxyethyl)-1-azaspiro[5.5]undec-4-ene 1.25 hydrochloride] yielded an ED50 of roughly 30 mg/kg. For CS(=O)(=O)O.Clc1ccc(C2=CCCNC23CCCCC3)cc1 [Example 16, 5-(4-chlorophenyl)-1-azaspiro[5.5]undec-4-ene methanesulphonate], the ED50 was 9.4 mg/kg. OC1(c2ccc(Cl)c(Cl)c2)CCCNC12CCCCC2 (centres unmarked) [Example 3, 5-(3,4-dichlorophenyl)-5-hydroxy-1-azaspiro[5.5]undecane] showed an ED50 of 10.7 mg/kg. Molecule CCCN1CCC=C(c2ccc(Cl)cc2)C12CCCCC2 [Example 20, 5-(4-chlorophenyl)-1-propyl-1-azaspiro[5.5]undec-4-enehydrochloride] has an ED50 of roughly 26 mg/kg. Cl.Clc1ccc(C2=CCCNC23CCCCC3)cc1 [Example 7, 5-(4-chlorophenyl)-1-azaspiro[5.5]undec-4-ene hydrochloride] gave an ED50 of 2 mg/kg. C1=C(c2ccccc2)C2(CCCCC2)NCC1.Cl [Example 24, 5-phenyl-1-azaspiro[5.5]undec-4-ene hydrochloride] gave an ED50 of roughly 11.5 mg/kg. Clc1ccc(C2=CCCNC23CCCCC3)cc1.O=C(O)/C=C/C(=O)O [Example 15, 5-(4-chlorophenyl)-1-azaspiro[5.5]undec-4-ene fumarate] gave an ED50 of 6.9 mg/kg. Work on Cl.Clc1ccc(C2=CCCNC23CCCCC3)cc1Cl [Example 9, 5-(3,4-dichlorophenyl)-1-azaspiro[5.5]undec-4-ene hydrochloride] yielded an ED50 of roughly 11 mg/kg. Work on Clc1ccc(C2=CCCNC23CCCCC3)cc1 [Example 6, 5-(4-chlorophenyl)-1-azaspiro[5.5]undec-4-ene 0.5 sulphate, 2.1 hydrate] yielded an ED50 of 14.1 mg/kg. Molecule Cl.Clc1ccc(C2CCCNC23CCCCC3)cc1 (centres unmarked) [Example 18, 5-(4-chlorophenyl)-1-azaspiro[5.5]undecane hydrochloride] has an ED50 of 4.8 mg/kg. In the case of OC1(c2cccc(Cl)c2)CCCNC12CCCCC2 (centres unmarked) [Example 2, 5-(3-chlorophenyl)-5-hydroxy-1-azaspiro[5.5]undecane], the ED50 is reported as roughly 16 mg/kg. CN1CCC=C(c2ccc(Cl)cc2)C12CCCCC2.Cl [Example 14, 5-(4-chlorophenyl)-1-methyl-1-azaspiro[5.5]undec-4-ene hydrochloride] showed an ED50 of roughly 12 mg/kg. COc1ccc(C2CCCNC23CCCCC3)cc1.Cl (centres unmarked) [Example 19, 5-(4-methoxyphenyl)-1-azaspiro[5.5]undecane hydrochloride] showed an ED50 of roughly 14 mg/kg. C1=C(c2ccc3ccccc3c2)C2(CCCCC2)NCC1.Cl [Example 12, 5-(2-naphthyl)-1-azaspiro[5.5]undec-4-ene hydrochloride] gave an ED50 of 11.9 mg/kg.

Same assay, conditions: mice, oral, reserpine 10 mg/kg i.p., temperature 3 h after compound
C=CCN1CCC=C(c2ccc(Cl)cc2)C12CCCCC2.O=C(O)/C=C\C(=O)O [Example 21, 1-allyl-5-(4-chlorophenyl)-1-azaspiro[5.5]undec-4-ene maleate] was tested, and the “Test 1 ED50 (dose causing 50% reversal of the reserpine-induced fall in body temperature)” value was “Inactive @ 30”. With Cl.Oc1ccc(C2=CCCNC23CCCCC3)cc1 [Example 13, 5-(4-hydroxyphenyl)-1-azaspiro[5.5]undec-4-ene hydrochloride] the “Test 1 ED50 (dose causing 50% reversal of the reserpine-induced fall in body temperature)” value was “Inactive @ 30”. With C1=C(c2ccc(-c3ccccc3)cc2)C2(CCCCC2)NCC1.Cl [Example 25, 5-(4-biphenylyl)-1-azaspiro[5.5]undec-4-ene hydrochloride] the “Test 1 ED50 (dose causing 50% reversal of the reserpine-induced fall in body temperature)” value was “Inactive @ 30”. In the case of CCN1CCCC(O)(c2ccc(Cl)cc2)C12CCCCC2.Cl (centres unmarked) [Example 4, 5-(4-chlorophenyl)-1-ethyl-5-hydroxy-1-azaspiro[5.5]undecane hydrochloride], the “Test 1 ED50 (dose causing 50% reversal of the reserpine-induced fall in body temperature)” value is reported as “Inactive @ 30”. With Cl.Clc1ccc(C2=CCNC23CCCCC3)cc1 [Example 26, 4-(4-chlorophenyl)-1-azaspiro[4.5]dec-3-ene hydrochloride] the “Test 1 ED50 (dose causing 50% reversal of the reserpine-induced fall in body temperature)” value was “Inactive @ 30”. With OC1(c2ccc(Cl)cc2)CCCNC12CCCCC2 (centres unmarked) [Example 1, 5-(4-chlorophenyl)-5-hydroxy-1-azaspiro[5.5]undecane] the “Test 1 ED50 (dose causing 50% reversal of the reserpine-induced fall in body temperature)” value was “Inactive @ 30”.

Each molecule was assayed on reserpine-induced ptosis (assay: Test 2: prevention of reserpine-induced ptosis (eye closure) in rats, oral). Conditions: Rattus norvegicus, po, 3 h, read-out: Test 2 ED50 (dose causing 50% prevention of the reserpine-induced ptosis).
Format: in vivo, rats (Charles River CD strain, male)
Excerpt: Male rats of the Charles River CD strain weighing between 140 and 180 g were randomly separated into five rats in each cage and supplied with food and water ad libitum. Eighteen hours prior to initiation of the test four of the five rats were marked with a pen such that each rat was individually identifiable; food was then withdrawn. The following morning, two hours before the test, the rats were weighed and a semi-randomised code was used to allocate treatments to rats. The test commenced by orally administering either:
a) the test compound in solution in deionised water at a dose volume of 10 ml/kg of body weight, followed by immediate intravenous injection of 1 ml/kg of body weight of reserpine (0.75 mg/kg) in solution in deionised water containing 238 mM citric acid, 1.02% v/v Tween 80 and 0.2% v/v benzyl alcohol (treated group);
b) deionised water at a dose volume of 10 ml/kg of body weight, followed by immediate intravenous injection of 1 ml/kg of body weight of reserpine (0.75 mg/kg) in solution in deionised water containing 238 mM citric acid, 1.02% v/v Tween 80 and 0.2% v/v benzyl alcohol (positive control group); or
c) deionised water at a dose volume of 10 ml/kg of body weight, followed by immediate intravenous injection of 1 ml/kg of body weight of deionised water containing 238 mM citric acid, 1.02% v/v Tween 80 and 0.2% v/v benzyl alcohol (negative control group).
The degree of prosis was scored 45 seconds and 75 seconds later using the following observer rating system: 0=eye fully open, 1=eye 1/4 closed, 2=eye 1/2 closed, 3=eye 3/4 closed, 4=eye fully closed. A mean ptosis score was then calculated for all identically treated rats usually comprising a group of eight rats. […] The mean ptosis score for each group of treated rats was determined at more than one dose of test compound to enable a value for the dose (ED50) which causes a 50% prevention of the reserpine-induced ptosis to be obtained.
Clc1ccc(C2=CCCNC23CCCC3)cc1.O=S(=O)(O)O [Example 17, 10-(4-chlorophenyl)-6-azaspiro[4.5]dec-9-ene sulphate] was tested, and the ED50 was 3.1 mg/kg. In the case of Fc1ccc(C2=CCCNC23CCCCC3)cc1.O=S(=O)(O)O [Example 10, 5-(4-fluorophenyl)-1-azaspiro[5.5]undec-4-ene sulphate], the ED50 is reported as 8.5 mg/kg. For Cl.Clc1cccc(C2=CCCNC23CCCCC3)c1 [Example 8, 5-(3-chlorophenyl)-1-azaspiro[5.5]undec-4-ene hydrochloride], the ED50 was 5.1 mg/kg. Clc1ccc(C2=CCCNC23CCCCC3)cc1.O=S(=O)(O)O [Example 5, 5-(4-chlorophenyl)-1-azaspiro[5.5]undec-4-ene sulphate] showed an ED50 of 7 mg/kg.

Same assay, conditions: Rattus norvegicus; rats, oral, reserpine 0.75 mg/kg i.v., ptosis scored 3 h later; read-out: Test 2 ED50 (dose causing 50% prevention of the reserpine-induced ptosis)
With C=CCN1CCC=C(c2ccc(Cl)cc2)C12CCCCC2.O=C(O)/C=C\C(=O)O [Example 21, 1-allyl-5-(4-chlorophenyl)-1-azaspiro[5.5]undec-4-ene maleate] the ED50 was 9.1 mg/kg. Molecule COCCN1CCC=C(c2ccc(Cl)cc2)C12CCCCC2 [Example 22, 5-(4-chlorophenyl)-1-(2-methoxyethyl)-1-azaspiro[5.5]undec-4-ene 1.25 hydrochloride] has an ED50 of 10.1 mg/kg. In the case of CS(=O)(=O)O.Clc1ccc(C2=CCCNC23CCCCC3)cc1 [Example 16, 5-(4-chlorophenyl)-1-azaspiro[5.5]undec-4-ene methanesulphonate], the ED50 is reported as 3.3 mg/kg. With Cl.Oc1ccc(C2=CCCNC23CCCCC3)cc1 [Example 13, 5-(4-hydroxyphenyl)-1-azaspiro[5.5]undec-4-ene hydrochloride] the ED50 was 21.8 mg/kg. C1=C(c2ccc(-c3ccccc3)cc2)C2(CCCCC2)NCC1.Cl [Example 25, 5-(4-biphenylyl)-1-azaspiro[5.5]undec-4-ene hydrochloride] was tested, and the ED50 was 9.9 mg/kg. OC1(c2ccc(Cl)c(Cl)c2)CCCNC12CCCCC2 (centres unmarked) [Example 3, 5-(3,4-dichlorophenyl)-5-hydroxy-1-azaspiro[5.5]undecane] was tested, and the ED50 was 7.7 mg/kg. Molecule CCCN1CCC=C(c2ccc(Cl)cc2)C12CCCCC2 [Example 20, 5-(4-chlorophenyl)-1-propyl-1-azaspiro[5.5]undec-4-enehydrochloride] has an ED50 of 3 mg/kg. CCN1CCCC(O)(c2ccc(Cl)cc2)C12CCCCC2.Cl (centres unmarked) [Example 4, 5-(4-chlorophenyl)-1-ethyl-5-hydroxy-1-azaspiro[5.5]undecane hydrochloride] showed an ED50 of 2.2 mg/kg. For Cl.Clc1ccc(C2=CCCNC23CCCCC3)cc1 [Example 7, 5-(4-chlorophenyl)-1-azaspiro[5.5]undec-4-ene hydrochloride], the ED50 was 1.4 mg/kg. Clc1ccc(C2=CCCNC23CCCCC3)cc1.O=C(O)/C=C/C(=O)O [Example 15, 5-(4-chlorophenyl)-1-azaspiro[5.5]undec-4-ene fumarate] showed an ED50 of 3.8 mg/kg. Work on Cl.Clc1ccc(C2=CCCNC23CCCCC3)cc1Cl [Example 9, 5-(3,4-dichlorophenyl)-1-azaspiro[5.5]undec-4-ene hydrochloride] yielded an ED50 of 3.9 mg/kg. Clc1ccc(C2=CCCNC23CCCCC3)cc1 [Example 6, 5-(4-chlorophenyl)-1-azaspiro[5.5]undec-4-ene 0.5 sulphate, 2.1 hydrate] gave an ED50 of 2.7 mg/kg. In the case of Cl.Clc1ccc(C2CCCNC23CCCCC3)cc1 (centres unmarked) [Example 18, 5-(4-chlorophenyl)-1-azaspiro[5.5]undecane hydrochloride], the ED50 is reported as 0.5 mg/kg. OC1(c2cccc(Cl)c2)CCCNC12CCCCC2 (centres unmarked) [Example 2, 5-(3-chlorophenyl)-5-hydroxy-1-azaspiro[5.5]undecane] gave an ED50 of 8.1 mg/kg. CN1CCC=C(c2ccc(Cl)cc2)C12CCCCC2.Cl [Example 14, 5-(4-chlorophenyl)-1-methyl-1-azaspiro[5.5]undec-4-ene hydrochloride] gave an ED50 of 30 mg/kg. COc1ccc(C2CCCNC23CCCCC3)cc1.Cl (centres unmarked) [Example 19, 5-(4-methoxyphenyl)-1-azaspiro[5.5]undecane hydrochloride] was tested, and the ED50 was 5.8 mg/kg. For C1=C(c2ccc3ccccc3c2)C2(CCCCC2)NCC1.Cl [Example 12, 5-(2-naphthyl)-1-azaspiro[5.5]undec-4-ene hydrochloride], the ED50 was 11.9 mg/kg. Cl.Clc1ccc(C2=CCNC23CCCCC3)cc1 [Example 26, 4-(4-chlorophenyl)-1-azaspiro[4.5]dec-3-ene hydrochloride] gave an ED50 of 5.6 mg/kg. With OC1(c2ccc(Cl)cc2)CCCNC12CCCCC2 (centres unmarked) [Example 1, 5-(4-chlorophenyl)-5-hydroxy-1-azaspiro[5.5]undecane] the ED50 was 11.3 mg/kg.

Same assay, conditions: rats, oral, reserpine 0.75 mg/kg i.v., ptosis scored 3 h later
With Cl.FC(F)(F)c1cccc(C2=CCCNC23CCCCC3)c1 [Example 11, 5-[3-(trifluoromethyl)phenyl]-1-azaspiro[5.5]undec-4-ene hydrochloride] the “Test 2 ED50 (dose causing 50% prevention of the reserpine-induced ptosis)” value was “Inactive @ 30”. For C1=C(c2ccccc2)C2(CCCCC2)NCC1.Cl [Example 24, 5-phenyl-1-azaspiro[5.5]undec-4-ene hydrochloride], the “Test 2 ED50 (dose causing 50% prevention of the reserpine-induced ptosis)” value was “Inactive @ 30”.
